Measured values as given in article PMC13185819, “De Novo Multi‐Mechanism Antimicrobial Peptide Design via Multimodal Deep Learning” (Advanced Science, 2026).
≈ marks a conversion by molar mass, not a printed value. Residues, ends and D or L forms follow the SMILES beside them.

Legend:
Assay type in all cases: cell-based
S. aureus 103 = tested on: S. aureus 103
Protocol: (§1) Standard strains included S. aureus ATCC33592, S. aureus CICC25138, and Salmonella enterica ATCC14028, which were purchased from the China Center of Industrial Culture Collection (CICC). Standard strains including E.coli CMCC44102, Salmonella enterica CMCC50071, and S. aureus CMCC26003 were purchased from the National Center for Medical Culture Collections (CMCC). […] All experiments using the above strains were carried out in a BSL‐2 laboratory. The clinical laboratory of Qilu Hospital detected bacterial resistance to various antibiotics. All strains were streaked on Nutrient Broth (NB) agar medium and incubated overnight at 37°C.
(§2) The antimicrobial activity of the peptides was examined in sterile 96‐well plates using the broth microdilution according to the CLSI standard. The colonies were suspended in saline solution, the turbidity was adjusted to McFarland 0.5 to reach a bacterial concentration of 10^8 CFU/mL, and again diluted 100 times for the inhibition test. Then, 50 µL of bacterial suspension at 1 × 10^6 CFU/mL was incubated with the same volume of different concentrations of peptide solution [serial twofold dilutions in Mueller–Hinton Broth (Hopebio)]. […] All experiments were performed with three independent replicates.

S. aureus CICC25138 = tested on: S. aureus CICC25138
Protocol: as §1, §2

E. faecium 1042 = tested on: E. faecium 1042
Protocol: as §1, §2

S. aureus CMCC26003 = tested on: S. aureus CMCC26003
Protocol: as §1, §2

S. aureus 129 = tested on: S. aureus 129
Protocol: as §1, §2

S. aureus ATCC33592 = tested on: S. aureus ATCC33592
Protocol: as §1, §2

P. aeruginosa 119 = tested on: P. aeruginosa 119
Protocol: as §1, §2

E.coli CMCC44102 = tested on: E.coli CMCC44102
Protocol: as §1, §2

E.coli 110 = tested on: E.coli 110
Protocol: as §1, §2

E. faecium 21 = tested on: E. faecium 21
Protocol: as §1, §2

E.coli 208 = tested on: E.coli 208
Protocol: as §1, §2

P. aeruginosa 112 = tested on: P. aeruginosa 112
Protocol: as §1, §2

K. pneumoniae 7713 = tested on: K. pneumoniae 7713
Protocol: as §1, §2

| Compound | MIC (μg/mL) S. aureus 103 (S. aureus 103) [µg/mL] | MIC (μg/mL) S. aureus CICC25138 (S. aureus CICC25138) [µg/mL] | MIC (μg/mL) E. faecium 1042 (E. faecium 1042) [µg/mL] | MIC (μg/mL) S. aureus CMCC26003 (S. aureus CMCC26003) [µg/mL] | MIC (μg/mL) S. aureus 129 (S. aureus 129) [µg/mL] | MIC (μg/mL) S. aureus ATCC33592 (S. aureus ATCC33592) [µg/mL] | MIC (μg/mL) P. aeruginosa 119 (P. aeruginosa 119) [µg/mL] | MIC (μg/mL) E.coli CMCC44102 (E.coli CMCC44102) [µg/mL] | MIC (μg/mL) E.coli 110 (E.coli 110) [µg/mL] | MIC (μg/mL) E. faecium 21 (E. faecium 21) [µg/mL] | MIC (μg/mL) E.coli 208 (E.coli 208) [µg/mL] | MIC (μg/mL) P. aeruginosa 112 (P. aeruginosa 112) [µg/mL] | MIC (μg/mL) K. pneumoniae 7713 (K. pneumoniae 7713) [µg/mL] |
| --- | --- | --- | --- | --- | --- | --- | --- | --- | --- | --- | --- | --- | --- |
| CC[C@H](C)[C@H](NC(=O)[C@H](CC(C)C)NC(=O)[C@@H](NC(=O)[C@H](C)NC(=O)[C@@H](N)CC(C)C)C(C)C)C(=O)N[C@@H](Cc1ccccc1)C(=O)N[C@H](C(=O)N[C@@H](CCCNC(=N)N)C(=O)N[C@@H](CCCNC(=N)N)C(=O)N[C@@H](CCCCN)C(=O)N[C@@H](CCC(N)=O)C(=O)N[C@@H](CC(C)C)C(N)=O)C(C)C [QLX-3DV-17] (H-LAVLIFVRRKQL-NH2) | 32 (≈ 22 µM) | 32 (≈ 22 µM) | 8 (≈ 5.5 µM) | 4 (≈ 2.75 µM) | 16 (≈ 11 µM) | 64 (≈ 44 µM) | 64 (≈ 44 µM) | 8 (≈ 5.5 µM) | 32 (≈ 22 µM) | 16 (≈ 11 µM) | 16 (≈ 11 µM) |  |  |
| CC[C@H](C)[C@H](NC(=O)[C@H](Cc1c[nH]c2ccccc12)NC(=O)[C@@H]1CCCN1C(=O)[C@H](CC(C)C)NC(=O)[C@H](CCCCN)NC(=O)[C@H](Cc1c[nH]c2ccccc12)NC(=O)[C@H](C)NC(=O)[C@H](CCCNC(=N)N)NC(=O)[C@H](CCC(N)=O)NC(=O)[C@H](CCC(N)=O)NC(=O)[C@@H](N)Cc1ccc(O)cc1)C(=O)N[C@@H](CC(C)C)C(=O)N[C@@H](CCCNC(=N)N)C(=O)N[C@@H](Cc1ccccc1)C(=O)N[C@@H](CC(C)C)C(=O)N[C@@H](CCCNC(=N)N)C(=O)N[C@@H](CC(C)C)C(N)=O [QLX-3DV-18] (H-YQQRAWKLPWILRFLRL-NH2) | 16 (≈ 7 µM) | 16 (≈ 7 µM) | 8 (≈ 3.5 µM) | 16 (≈ 7 µM) | 32 (≈ 14 µM) |  | 64 (≈ 28 µM) | 16 (≈ 7 µM) | 32 (≈ 14 µM) | 8 (≈ 3.5 µM) | 8 (≈ 3.5 µM) | 8 (≈ 3.5 µM) | 64 (≈ 28 µM) |
| CC[C@H](C)[C@H](N)C(=O)N[C@@H](CCCNC(=N)N)C(=O)N1CCC[C@H]1C(=O)N[C@@H](CC(C)C)C(=O)N[C@H](C(=O)N[C@@H](CCC(N)=O)C(=O)N1CCC[C@H]1C(=O)N[C@@H](CCCNC(=N)N)C(=O)N[C@@H](Cc1ccc(O)cc1)C(=O)N[C@@H](CCCNC(=N)N)C(=O)N[C@@H](Cc1ccccc1)C(=O)N[C@@H](Cc1ccc(O)cc1)C(=O)N1CCC[C@H]1C(=O)N[C@@H](CCCNC(=N)N)C(=O)N[C@@H](CCCCN)C(=O)N[C@@H](CCCNC(=N)N)C(=O)N[C@@H](CC(C)C)C(N)=O)C(C)C [QLX-3DV-20] (H-IRPLVQPRYRFYPRKRL-NH2) |  |  | 64 (≈ 28.3 µM) | 16 (≈ 7.09 µM) | 64 (≈ 28.3 µM) |  |  | 16 (≈ 7.09 µM) | 32 (≈ 14.2 µM) | 64 (≈ 28.3 µM) | 16 (≈ 7.09 µM) | 32 (≈ 14.2 µM) | 64 (≈ 28.3 µM) |
